The results in this text go back to patent publication US12404304B1, “Telomerase reverse transcriptase (TERT) expression enhancing compounds and methods for using the same” (Sierra Sciences, LLC, priority 2007, dated 2025).

The test system of the series is viable cells in culture. Put plainly: Cell viability assay (CellTiter-Glo Luminescent Cell Viability Assay, ATP quantitation, percent of vehicle control). On the technique in general: ATP-based viability assays read luminescence as a measure of living cells.

Regarding `CCC(=O)NC(c1ccc(N(C)C)cc1)c1ccc2cccnc2c1O` (stereo not shown) [compound 1001], the “Average Cell Viability after 24 Hours (% DMSO)” value is reported as 44.55 % DMSO.

Regarding `Oc1c(CN2CCN(c3cccc(Cl)c3)CC2)cc(Br)c2cccnc12` [compound 1002], the “Average Cell Viability after 24 Hours (% DMSO)” value was determined as 57.70 % DMSO. `CN1CCN(Cc2cc(COCc3ccccc3)c3cccnc3c2O)CC1` [compound 1003]: the “Average Cell Viability after 24 Hours (% DMSO)” value is recorded as 73.53 % DMSO. Regarding `Oc1c(C(Nc2ccccn2)c2ccc(OC3CCCC3)cc2)ccc2cccnc12` (stereo not shown) [compound 1004], the “Average Cell Viability after 24 Hours (% DMSO)” value was found to be 54.71 % DMSO. To `COc1cc(C(Nc2ccccn2)c2ccc3cccnc3c2O)cc(Br)c1OC` (stereo not shown) [compound 1005] belongs 64.80 % DMSO; to `Oc1c(C(Nc2ccccn2)c2cccc(Cl)c2Cl)ccc2cccnc12` (stereo not shown) [compound 1006], 69.78 % DMSO; to `Oc1c(C(Nc2ccccn2)c2ccccc2Br)ccc2cccnc12` (stereo not shown) [compound 1007], 68.00 % DMSO. On to `COC(=O)c1ccc(C(Nc2cc(C)ccn2)c2ccc3ccc(C)nc3c2O)cc1` (stereo not shown) [compound 1008], for which the “Average Cell Viability after 24 Hours (% DMSO)” value was 67.58 % DMSO.

For the compound `Oc1c(C(Nc2ccccn2)c2c(Cl)cccc2Cl)ccc2cccnc12` (stereo not shown) [compound 1009], the “Average Cell Viability after 24 Hours (% DMSO)” value was 68.59 % DMSO. To `CCN(CC)c1ccc(C(NC(=O)C(C)C)c2cc(Cl)c3cccnc3c2O)cc1` (stereo not shown) [compound 1011] belongs 64.50 % DMSO; to `COc1ccc(C(=O)NC(c2ccco2)c2cc(Cl)c3cccnc3c2O)cc1` (stereo not shown) [compound 1012], 60.73 % DMSO; to `COc1cccc(C(=O)NC(c2ccc(OC)c(OC)c2)c2cc(Cl)c3cccnc3c2O)c1` (stereo not shown) [compound 1013], 74.96 % DMSO. To `COc1ccc(C(=O)NC(c2ccc(Cl)cc2)c2cc(Cl)c3cccnc3c2O)cc1` (stereo not shown) [compound 1014] belongs 28.33 % DMSO; to `O=C(COc1ccccc1)NC(/C=C/c1ccccc1)c1cc(Cl)c2cccnc2c1O` (stereo not shown) [compound 1015], 74.68 % DMSO. Then `COc1ccc(C(=O)NC(/C=C/c2ccccc2)c2cc(Cl)c3cccnc3c2O)cc1` (stereo not shown) [compound 1016], with 42.84 % DMSO; and `COc1cccc(C(=O)NC(/C=C/c2ccccc2)c2cc(Cl)c3cccnc3c2O)c1` (stereo not shown) [compound 1017], with 75.48 % DMSO; and `Oc1c(I)cc(I)c2cccnc12` [compound 1018], with 56.90 % DMSO.

Consider `Oc1c(Br)cc(Br)c2cccnc12` [compound 1019], for which the “Average Cell Viability after 24 Hours (% DMSO)” value was 35.74 % DMSO. Take `Oc1c(Cl)cc(Cl)c2cccnc12` [compound 1020]: the “Average Cell Viability after 24 Hours (% DMSO)” value came to 25.10 % DMSO.

For the compound `CC(=O)NC(c1ccc(Br)cc1)c1ccc2cccnc2c1O` (stereo not shown) [compound 1022], the “Average Cell Viability after 24 Hours (% DMSO)” value was 63.83 % DMSO. To `COc1ccc(C(NC(C)=O)c2ccc3cccnc3c2O)cc1OC` (stereo not shown) [compound 1023] belongs 75.33 % DMSO; to `CC(=O)NC(c1ccc(C)cc1)c1ccc2cccnc2c1O` (stereo not shown) [compound 1024], 95.15 % DMSO; to `CC(=O)NC(c1ccccc1Cl)c1ccc2cccnc2c1O` (stereo not shown) [compound 1025], 93.50 % DMSO.

For `CCCCC(=O)NC(c1ccccc1OC)c1cc([N+](=O)[O-])c2cccnc2c1O` (stereo not shown) [compound 1027], the “Average Cell Viability after 24 Hours (% DMSO)” value is listed as 62.71 % DMSO. `O=[N+]([O-])c1cc(CN2CCN(c3ccccc3)CC2)c(O)c2ncccc12` [compound 1029]: the “Average Cell Viability after 24 Hours (% DMSO)” value was found to be 32.00 % DMSO. Turning to `CC(=O)NC(c1ccc(C(C)C)cc1)c1ccc2cccnc2c1O` (stereo not shown) [compound 1030], the “Average Cell Viability after 24 Hours (% DMSO)” value worked out at 73.78 % DMSO. To `CCCCC(=O)NC(c1ccccc1Cl)c1cc([N+](=O)[O-])c2cccnc2c1O` (stereo not shown) [compound 1031] belongs 76.88 % DMSO. Then `CCC(=O)NC(c1ccc(OC)c(OC)c1)c1cc(Cl)c2cccnc2c1O` (stereo not shown) [compound 1032], with 75.67 % DMSO; and `CCOc1cc(C(NC(C)=O)c2cc([N+](=O)[O-])c3cccnc3c2O)ccc1O` (stereo not shown) [compound 1033], with 84.43 % DMSO. Then `CC(=O)NC(c1ccco1)c1cc([N+](=O)[O-])c2cccnc2c1O` (stereo not shown) [compound 1034], with 83.39 % DMSO; and `CCC(=O)NC(/C=C/c1ccccc1)c1cc([N+](=O)[O-])c2cccnc2c1O` (stereo not shown) [compound 1035], with 62.45 % DMSO. Consider `CCCC(=O)NC(c1ccc(O)c(OCC)c1)c1cc([N+](=O)[O-])c2cccnc2c1O` (stereo not shown) [compound 1036], for which the “Average Cell Viability after 24 Hours (% DMSO)” value is 73.28 % DMSO. Then `CC(=O)NC(c1ccc(Cl)cc1)c1cc([N+](=O)[O-])c2cccnc2c1O` (stereo not shown) [compound 1037], with 67.96 % DMSO; and `CCC(=O)NC(c1ccco1)c1cc(Cl)c2cccnc2c1O` (stereo not shown) [compound 1039], with 72.76 % DMSO; and `CCCCC(=O)NC(c1ccc(OC)cc1)c1cc([N+](=O)[O-])c2cccnc2c1O` (stereo not shown) [compound 1040], with 61.11 % DMSO.

As to `CCC(=O)NC(c1ccccc1Cl)c1cc(Cl)c2cccnc2c1O` (stereo not shown) [compound 1041], the “Average Cell Viability after 24 Hours (% DMSO)” value was determined as 72.82 % DMSO. Consider `CC(C)C(=O)NC(c1ccc(Cl)cc1Cl)c1ccc2cccnc2c1O` (stereo not shown) [compound 1042], for which the “Average Cell Viability after 24 Hours (% DMSO)” value was 55.51 % DMSO. Then `CCC(=O)NC(c1ccccc1OC)c1cc(Cl)c2cccnc2c1O` (stereo not shown) [compound 1043], with 47.47 % DMSO.

In the case of `CCCC(=O)NC(c1ccc(Cl)cc1)c1cc([N+](=O)[O-])c2cccnc2c1O` (stereo not shown) [compound 1044], the “Average Cell Viability after 24 Hours (% DMSO)” value turned out to be 85.35 % DMSO. As for `O=C(NC(c1ccc(Cl)cc1)c1ccc2cccnc2c1O)C1CCCCC1` (stereo not shown) [compound 1045], the “Average Cell Viability after 24 Hours (% DMSO)” value is on record as 60.30 % DMSO. To `CCCCC(=O)NC(c1ccc2c(c1)OCO2)c1cc([N+](=O)[O-])c2cccnc2c1O` (stereo not shown) [compound 1046] belongs 78.00 % DMSO. With `Cc1ccc(C(NC(=O)C2CCCCC2)c2ccc3cccnc3c2O)cc1` (stereo not shown) [compound 1047], the “Average Cell Viability after 24 Hours (% DMSO)” value is 69.78 % DMSO. Then `CCCC(=O)NC(c1cccs1)c1cc([N+](=O)[O-])c2cccnc2c1O` (stereo not shown) [compound 1048], with 70.37 % DMSO; and `CCC(=O)NC(c1ccc(C)cc1)c1cc([N+](=O)[O-])c2cccnc2c1O` (stereo not shown) [compound 1049], with 65.63 % DMSO.

`CC(=O)NC(c1ccccc1)c1cc([N+](=O)[O-])c2cccnc2c1O` (stereo not shown) [compound 1050]: the “Average Cell Viability after 24 Hours (% DMSO)” value amounted to 62.77 % DMSO.

Consider `CCC(=O)NC(c1ccccc1OC)c1cc([N+](=O)[O-])c2cccnc2c1O` (stereo not shown) [compound 1051], for which the “Average Cell Viability after 24 Hours (% DMSO)” value worked out at 65.27 % DMSO.

For the compound `CC(=O)NC(c1cccs1)c1cc(Cl)c2cccnc2c1O` (stereo not shown) [compound 1052], the “Average Cell Viability after 24 Hours (% DMSO)” value was 60.80 % DMSO. Then `CCCCC(=O)NC(c1ccc(OC)c(OC)c1)c1cc([N+](=O)[O-])c2cccnc2c1O` (stereo not shown) [compound 1053], with 59.77 % DMSO; and `CCCCC(=O)NC(c1ccc(Cl)cc1)c1cc([N+](=O)[O-])c2cccnc2c1O` (stereo not shown) [compound 1054], with 46.45 % DMSO. Then `CCCCC(=O)NC(c1ccco1)c1cc([N+](=O)[O-])c2cccnc2c1O` (stereo not shown) [compound 1055], with 57.43 % DMSO.

For `CCCC(=O)NC(c1ccc(C(C)C)cc1)c1cc([N+](=O)[O-])c2cccnc2c1O` (stereo not shown) [compound 1056], the “Average Cell Viability after 24 Hours (% DMSO)” value came out at 65.75 % DMSO. As for `CC(=O)NC(c1ccc(C(C)C)cc1)c1cc(Cl)c2cccnc2c1O` (stereo not shown) [compound 1057], the “Average Cell Viability after 24 Hours (% DMSO)” value was determined as 50.02 % DMSO. Then `CC(=O)NC(c1cccs1)c1ccc2cccnc2c1O` (stereo not shown) [compound 1058], with 69.11 % DMSO. For the compound `CCN(CC)c1ccc(C(NC(=O)C(C)C)c2ccc3cccnc3c2O)cc1` (stereo not shown) [compound 1060], the “Average Cell Viability after 24 Hours (% DMSO)” value worked out at 63.44 % DMSO.

Turning to `CCCCC(=O)NC(c1ccc(OC)cc1)c1cc(Cl)c2cccnc2c1O` (stereo not shown) [compound 1061], the “Average Cell Viability after 24 Hours (% DMSO)” value was determined as 62.27 % DMSO. Then `CC(C)C(=O)NC(c1ccc(C(C)C)cc1)c1cc(Cl)c2cccnc2c1O` (stereo not shown) [compound 1062], with 60.77 % DMSO; and `CCCCC(=O)NC(c1cccs1)c1cc([N+](=O)[O-])c2cccnc2c1O` (stereo not shown) [compound 1063], with 85.12 % DMSO; and `CC(C)C(=O)NC(c1ccc2c(c1)OCO2)c1cc([N+](=O)[O-])c2cccnc2c1O` (stereo not shown) [compound 1064], with 67.37 % DMSO. Then `O=C(CCc1ccccc1)NC(c1ccc2c(c1)OCO2)c1ccc2cccnc2c1O` (stereo not shown) [compound 1065], with 61.72 % DMSO. Turning to `CCCC(=O)NC(c1ccc(N(C)C)cc1)c1cc(Cl)c2cccnc2c1O` (stereo not shown) [compound 1066], the “Average Cell Viability after 24 Hours (% DMSO)” value is 72.46 % DMSO. `CCCCC(=O)NC(c1cccs1)c1cc(Cl)c2cccnc2c1O` (stereo not shown) [compound 1067]: the “Average Cell Viability after 24 Hours (% DMSO)” value was found to be 49.62 % DMSO. Take `O=C(NC(c1ccc2c(c1)OCO2)c1cc([N+](=O)[O-])c2cccnc2c1O)C1CCCCC1` (stereo not shown) [compound 1068]: the “Average Cell Viability after 24 Hours (% DMSO)” value was 61.20 % DMSO. `CCCCC(=O)NC(/C=C/c1ccccc1)c1cc([N+](=O)[O-])c2cccnc2c1O` (stereo not shown) [compound 1069]: the “Average Cell Viability after 24 Hours (% DMSO)” value is 80.34 % DMSO. To `CCCC(=O)NC(c1ccc(N(CC)CC)cc1)c1cc(Cl)c2cccnc2c1O` (stereo not shown) [compound 1070] belongs 69.71 % DMSO.
